Laboratory results reported in ChEMBL document CHEMBL1158330, “Two new puriniums and three new pyrimidines from Heterostemma brownii” (J Nat Prod, 1997).

Legend:
Huh-7 [1] = assay: Cytotoxicity against human HuH7 cells at 100 nM after 72 hrs by MTT assay relative to control; assay type: functional; settings: Huh-7, 72 h
Huh-7 [2] = assay: Cytotoxicity against human HuH7 cells after 72 hrs by MTT assay; assay type: functional, cell-based; settings: Huh-7, 72 h
MOLT-4 [3] = assay: Cytotoxicity against human MOLT4 cells at 1000 uM after 72 hrs by MTT assay relative to control; assay type: functional; settings: MOLT-4, 72 h
MOLT-4 [4] = assay: Cytotoxicity against human MOLT4 cells at 100 uM after 72 hrs by MTT assay relative to control; assay type: functional; settings: MOLT-4, 72 h
MOLT-4 [5] = assay: Cytotoxicity against human MOLT4 cells at 10 uM after 72 hrs by MTT assay relative to control; assay type: functional; settings: MOLT-4, 72 h
MOLT-4 [6] = assay: Cytotoxicity against human MOLT4 cells at 1 uM after 72 hrs by MTT assay relative to control; assay type: functional; settings: MOLT-4, 72 h
MOLT-4 [7] = assay: Cytotoxicity against human MOLT4 cells at 100 nM after 72 hrs by MTT assay relative to control; assay type: functional; settings: MOLT-4, 72 h
MOLT-4 [8] = assay: Cytotoxicity against human MOLT4 cells after 72 hrs by MTT assay; assay type: functional, cell-based; settings: MOLT-4, 72 h
HL-60 [9] = assay: Cytotoxicity against human HL60 cells at 1000 uM after 72 hrs by MTT assay relative to control; assay type: functional; settings: HL-60, 72 h
HL-60 [10] = assay: Cytotoxicity against human HL60 cells at 100 uM after 72 hrs by MTT assay relative to control; assay type: functional; settings: HL-60, 72 h
HL-60 [11] = assay: Cytotoxicity against human HL60 cells at 10 uM after 72 hrs by MTT assay relative to control; assay type: functional; settings: HL-60, 72 h
HL-60 [12] = assay: Cytotoxicity against human HL60 cells at 1 uM after 72 hrs by MTT assay relative to control; assay type: functional; settings: HL-60, 72 h
HL-60 [13] = assay: Cytotoxicity against human HL60 cells at 100 nM after 72 hrs by MTT assay relative to control; assay type: functional; settings: HL-60, 72 h
HL-60 [14] = assay: Cytotoxicity against human HL60 cells after 72 hrs by MTT assay; assay type: functional, cell-based; settings: HL-60, 72 h
K562 [15] = assay: Cytotoxicity against human K562 cells at 1000 uM after 72 hrs by MTT assay relative to control; assay type: functional; settings: K562, 72 h
K562 [16] = assay: Cytotoxicity against human K562 cells at 100 uM after 72 hrs by MTT assay relative to control; assay type: functional; settings: K562, 72 h
K562 [17] = assay: Cytotoxicity against human K562 cells at 10 uM after 72 hrs by MTT assay relative to control; assay type: functional; settings: K562, 72 h
K562 [18] = assay: Cytotoxicity against human K562 cells at 1 uM after 72 hrs by MTT assay relative to control; assay type: functional; settings: K562, 72 h
K562 [19] = assay: Cytotoxicity against human K562 cells at 100 nM after 72 hrs by MTT assay relative to control; assay type: functional; settings: K562, 72 h
K562 [20] = assay: Cytotoxicity against human K562 cells after 72 hrs by MTT assay; assay type: functional, cell-based; settings: K562, 72 h
Huh-7 [21] = assay: Cytotoxicity against human HuH7 cells at 100 uM after 72 hrs by MTT assay relative to control; assay type: functional; settings: Huh-7, 72 h
[22] = Cytotoxicity against human HCE6 cells at 1000 uM after 72 hrs by MTT assay relative to control; assay type: functional; settings: HCE6, 72 h
[23] = Cytotoxicity against human HCE6 cells at 100 uM after 72 hrs by MTT assay relative to control; assay type: functional; settings: HCE6, 72 h
[24] = Cytotoxicity against human HCE6 cells at 10 uM after 72 hrs by MTT assay relative to control; assay type: functional; settings: HCE6, 72 h
[25] = Cytotoxicity against human HCE6 cells at 1 uM after 72 hrs by MTT assay relative to control; assay type: functional; settings: HCE6, 72 h
[26] = Cytotoxicity against human HCE6 cells at 100 nM after 72 hrs by MTT assay; assay type: functional; settings: HCE6, 72 h
[27] = Cytotoxicity against human HCE6 cells after 72 hrs by MTT assay; assay type: functional, cell-based; settings: HCE6, 72 h
Huh-7 [28] = assay: Cytotoxicity against human HuH7 cells at 1000 uM after 72 hrs by MTT assay relative to control; assay type: functional; settings: Huh-7, 72 h
Huh-7 [29] = assay: Cytotoxicity against human HuH7 cells at 10 uM after 72 hrs by MTT assay relative to control; assay type: functional; settings: Huh-7, 72 h
Huh-7 [30] = assay: Cytotoxicity against human HuH7 cells at 1 uM after 72 hrs by MTT assay relative to control; assay type: functional; settings: Huh-7, 72 h

Row | Structure (SMILES) | viability at 0.1 µM (Huh-7 [1]) [%] | IC50 (Huh-7 [2]) [µM] | viability at 1000 µM (MOLT-4 [3]) [%] | viability at 100 µM (MOLT-4 [4]) [%] | viability at 10 µM (MOLT-4 [5]) [%] | viability at 1 µM (MOLT-4 [6]) [%] | viability at 0.1 µM (MOLT-4 [7]) [%] | IC50 (MOLT-4 [8]) [µM] | viability at 1000 µM (HL-60 [9]) [%] | viability at 100 µM (HL-60 [10]) [%] | viability at 10 µM (HL-60 [11]) [%] | viability at 1 µM (HL-60 [12]) [%] | viability at 0.1 µM (HL-60 [13]) [%] | IC50 (HL-60 [14]) [µM] | viability at 1000 µM (K562 [15]) [%] | viability at 100 µM (K562 [16]) [%] | viability at 10 µM (K562 [17]) [%] | viability at 1 µM (K562 [18]) [%] | viability at 0.1 µM (K562 [19]) [%] | IC50 (K562 [20]) [µM] | also measured
1 | CNc1nc(OC)c2c(n1)n(C)c[n+]2C [HETEROMINE B] | 104 | 464 | 17.4 | 35.9 | 86 | 91 | 107 | 52.3 | 14.9 | 20.3 | 72.6 | 99.1 | 114 | 27 | 27.6 | 40.4 | 88.2 | 95.5 | 96.8 | 62.9 | viability at 100 µM (Huh-7 [21]): 92.5%; viability at 1000 µM [22]: 10.6%; viability at 100 µM [23]: 22.1%; viability at 10 µM [24]: 85%; viability at 1 µM [25]: 82.2%; viability at 0.1 µM [26]: 82.2%; IC50 [27]: 36 µM; viability at 1000 µM (Huh-7 [28]): 28.8%; viability at 10 µM (Huh-7 [29]): 94.3%; viability at 1 µM (Huh-7 [30]): 103%
2 | COc1nc(N(C)C)nc2c1[n+](C)cn2C [HETEROMINE A] | 97.3 | 71.8 | 5.6 | 24.8 | 54.8 | 90.7 | 94.7 | 14.4 | 5.7 | 8.2 | 42.7 | 99.3 | 94.5 | 7.43 | 5.9 | 33.5 | 49.7 | 107 | 94.3 | 9.88 | viability at 100 µM (Huh-7 [21]): 43.1%; viability at 1000 µM [22]: 1.7%; viability at 100 µM [23]: 8.2%; viability at 10 µM [24]: 26.2%; viability at 1 µM [25]: 87.4%; viability at 0.1 µM [26]: 92.4%; IC50 [27]: 4.08 µM; viability at 1000 µM (Huh-7 [28]): 11.1%; viability at 10 µM (Huh-7 [29]): 91.1%; viability at 1 µM (Huh-7 [30]): 102%
